Our source for the IC50, AUC and EC50 values is US10301284B2, “Therapeutic inhibitory compounds” (LifeSci Pharmaceuticals, Inc., priority 2016, dated 2019).

Data set [1] deals with T1, human Plasma Kallikrein (Homo sapiens (Human), UniProt P03952). The data set is described as follows: In vitro enzyme inhibition of human plasma kallikrein (Pro-Phe-Arg-AMC cleavage). It is filed as biochemical. The following applies: human plasma kallikrein, PFR-AMC substrate, 37° C.; read-out: hPK IC50. The procedure, abridged: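 Human plasma kallikrein preincubated 5 min at 37 °C with compound in 50 mM Tris-HCl pH 7.5, 150 mM NaCl, 0.01% Triton X-100. Reaction started with Pro-Phe-Arg-AMC, fluorescence read every 43 s for 1 h at 37 °C. IC50 from highest mean velocity over 20 reads (~15 min).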

A short description of data set [2]: Pharmacokinetic evaluation, oral exposure in rats. It is filed as in vivo. The following applies: rat; male Sprague-Dawley rats, single oral dose 10 mg/kg via oral gavage, plasma; read-out: AUC. The procedure, abridged:
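Male Sprague-Dawley rats dosed once at 10 mg/kg by oral gavage (2 mg/mL formulation). Jugular blood drawn pre-dose and from 5 min to 24 h post-dose; plasma compound levels measured by LC/MS/MS.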

In data set [3] the target is T1, human Plasma Kallikrein. The data set is described as follows: Human whole blood kallikrein inhibition (ellagic acid-activated human plasma, Z-FR-2-AMC substrate). It is filed as biochemical. The following applies: human plasma activated with ellagic acid, Z-FR-2-AMC 40 μM, 37° C.; read-out: HWB EC50. The procedure, abridged: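 Platelet-depleted human plasma was activated with ellagic acid and diluted in 50 mM Tris-HCl pH 7.2, 150 mM NaCl, 0.01% Triton X-100, then preincubated 15 min at 37 °C. Compounds (0.076 nM–20 μM, duplicates) were added for 5 min at 37 °C. Z-FR-2-AMC (40 μM final) was read kinetically at ex 330/em 440 nm for 60 min, and IC50 was taken from a variable-slope fit.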

Each structure is given as a SMILES string. Bounds are passed on as bounds.

T1 sequence (P03952 391-638 limits assumed): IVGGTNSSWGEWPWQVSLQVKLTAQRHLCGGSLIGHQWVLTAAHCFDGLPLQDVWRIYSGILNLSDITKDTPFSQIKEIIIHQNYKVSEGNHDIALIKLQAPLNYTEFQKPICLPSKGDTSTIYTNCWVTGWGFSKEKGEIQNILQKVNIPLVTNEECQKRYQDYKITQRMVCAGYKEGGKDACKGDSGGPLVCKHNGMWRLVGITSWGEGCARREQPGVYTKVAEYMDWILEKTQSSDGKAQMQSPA
T1 sequence (P03952 20-390 partner limits assumed): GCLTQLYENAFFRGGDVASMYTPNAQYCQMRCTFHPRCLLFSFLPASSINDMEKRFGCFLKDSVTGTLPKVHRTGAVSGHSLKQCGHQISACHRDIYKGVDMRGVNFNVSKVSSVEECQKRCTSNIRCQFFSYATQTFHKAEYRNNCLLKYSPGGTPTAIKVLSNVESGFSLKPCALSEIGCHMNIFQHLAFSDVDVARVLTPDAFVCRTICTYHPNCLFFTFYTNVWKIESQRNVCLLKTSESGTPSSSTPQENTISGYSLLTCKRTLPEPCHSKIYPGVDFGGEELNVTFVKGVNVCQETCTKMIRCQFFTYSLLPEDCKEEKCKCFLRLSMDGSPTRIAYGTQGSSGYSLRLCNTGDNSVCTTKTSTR

`Cc1cc(N)nc(C)c1CNC(=O)c1cn(Cc2cc(F)c3ncc(Cl)cc3c2)nc1C#N` [Example 52, N-((6-amino-2,4-dimethylpyridin-3-yl)methyl)-1-((3-chloro-8-fluoroquinolin-6-yl)methyl)-3-cyano-1H-pyrazole-4-carboxamide]: on human Plasma Kallikrein [1], the 50% inhibitory concentration (IC50) – broadly, the concentration needed to halve the response being measured – was less than 100 nM. Also, the area under the curve (AUC) (in general, concentration integrated over time) in data set [2] lay in the range of 100 to 1000 ng·h/mL. In addition, the EC50 (as a rule, the midpoint of the concentration-response curve) at human Plasma Kallikrein [3] was less than 100 nM.

Regarding `Cc1cc(N)nc(C)c1CNC(=O)c1nc(N)n(Cc2ccc3ncc(Cl)cc3c2)n1` [Example 20, 5-amino-N-((6-amino-2,4-dimethylpyridin-3-yl)methyl)-1-((3-chloroquinolin-6-yl)methyl)-1H-1,2,4-triazole-3-carboxamide], the 50% inhibitory concentration (IC50) on human Plasma Kallikrein [1] is less than 100 nM. Also, the AUC in data set [2] is less than 100 ng·h/mL. For the same molecule, the EC50 on human Plasma Kallikrein [3] is less than 100 nM.

Turning to `Cc1cnc2c(C#N)cc(Cn3cc(C(=O)NCc4c(C)cc(N)nc4C)c(C#N)n3)cc2c1` [Example 62, N-((6-amino-2,4-dimethylpyridin-3-yl)methyl)-3-cyano-1-((8-cyano-3-methylquinolin-6-yl)methyl)-1H-pyrazole-4-carboxamide], the IC50 on human Plasma Kallikrein [1] is less than 100 nM. Moreover, the exposure (AUC) in data set [2] is less than 100 ng·h/mL. Besides, the concentration giving a half-maximal response (EC50) on human Plasma Kallikrein [3] was less than 100 nM.

In the case of `Cc1cnc2ccc(Cn3cc(C(=O)NCc4ccc(N)nc4C)c(C#N)n3)cc2c1` [Example 82, N-((6-amino-2-methylpyridin-3-yl)methyl)-3-cyano-1-((3-methylquinolin-6-yl)methyl)-1H-pyrazole-4-carboxamide], the IC50 on human Plasma Kallikrein [1] is less than 100 nM. In data set [2], the AUC is 100 to 1000 ng·h/mL. Besides, the EC50 on human Plasma Kallikrein [3] is less than 100 nM.

`Cc1cc(N)nc(C)c1CNC(=O)c1cn(Cc2ccc3ncc(Cl)cc3c2)nc1N` [Example 17, 3-amino-N-((6-amino-2,4-dimethylpyridin-3-yl)methyl)-1-((3-chloroquinolin-6-yl)methyl)-1H-pyrazole-4-carboxamide]: the 50% inhibitory concentration (IC50) at human Plasma Kallikrein [1] was less than 100 nM. Moreover, the AUC in data set [2] is 100 to 1000 ng·h/mL. Besides, at human Plasma Kallikrein [3], the EC50 was less than 100 nM.

With `Cc1nc(N)ccc1CNC(=O)c1cn(Cc2ccc3ncc(C(F)(F)F)cc3c2)nc1C#N` [Example 74, N-((6-amino-2-methylpyridin-3-yl)methyl)-3-cyano-1-((3-(trifluoromethyl)quinolin-6-yl)methyl)-1H-pyrazole-4-carboxamide], at human Plasma Kallikrein [1], the IC50 was less than 100 nM. Moreover, the AUC in data set [2] is 1000 to 10000 ng·h/mL. Moreover, the concentration giving a half-maximal response (EC50) on human Plasma Kallikrein [3] was less than 100 nM.

As to `Cc1cc(N)nc(C)c1CNC(=O)c1nnc(Cc2cc(F)c3ncc(Cl)cc3c2)o1` [Example 75, N-((6-amino-2,4-dimethylpyridin-3-yl)methyl)-5-((3-chloro-8-fluoroquinolin-6-yl)methyl)-1,3,4-oxadiazole-2-carboxamide], the IC50 at human Plasma Kallikrein [1] was less than 100 nM. Also, in data set [2], the AUC was in the range of 1000 to 10000 ng·h/mL. For the same molecule, the concentration giving a half-maximal response (EC50) at human Plasma Kallikrein [3] is less than 100 nM.
